This is an account of results in patent publication US10577362B2, “Substituted 2, 4-diamino-quinoline derivatives for use in the treatment of proliferative diseases” (GENOSCIENCE PHARMA, priority 2016, dated 2020).

SMILES strings stand for the structures. Structures can show the parent of a compound that is named as a salt.

Common to all, as to format: cell-based, human
In experiment [1] the test system is HCT-116 (colorectal carcinoma) cell line. Nature of the experiment: CellTiter-Glo luminescent cell viability assay, HCT-116. To be noted: Homo sapiens; for viability at 4 µM: HCT-116, compound at 4 μM; for viability at 4 µM / viability at 10 µM: 72 h; for viability at 10 µM: HCT-116, compound at 10 μM; for EC50: HCT-116 cell line, 72 h incubation, CellTiter-Glo, read-out: EC50, growth inhibition of HCT-116. The essentials:
(§1)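 Adherent lines plated overnight, MOLM-14 (suspension) 1 h before dosing, in medium with 10% FBS at 37 °C, 5% CO2. Compounds added at varying concentrations for 72 h; CellTiter-Glo luminescence read, EC50 as dose reducing signal to 50% of diluent-treated cells, at least duplicate points.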
(In ATP-based viability assays light output follows the ATP content of the culture.)

Experiment [2] has as its system HepG2 (hepatocellular carcinoma) cell line. Briefly: CellTiter-Glo luminescent cell viability assay, HepG2. To be noted: Homo sapiens; for viability at 4 µM / viability at 10 µM: HepG2, HepG, 72 h; for viability at 4 µM: compound at 4 μM; for viability at 10 µM: compound at 10 μM; for EC50: HepG2 cell line, 72 h incubation, CellTiter-Glo, read-out: EC50, growth inhibition of HepG2. The essentials:
(§2)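 Cells were cultured at 37 °C, 5% CO2 with 10% FBS; adherent lines were plated overnight, suspension MOLM-14 plated 1 h before dosing. Compounds in H2O or DMSO were added at various concentrations for 72 h, and viability was read by luminescence. EC50 is the dose reducing signal to 50% of diluent control.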

The subject of experiment [3] is 786-O (renal adenocarcinoma) cell line. Briefly: CellTiter-Glo luminescent cell viability assay, 786-O. To be noted: Homo sapiens, 786-0; for viability at 4 µM / viability at 10 µM: 786-O, 72 h; for viability at 4 µM: compound at 4 μM; for viability at 10 µM: compound at 10 μM; for EC50: 786-O cell line, 72 h incubation, CellTiter-Glo, read-out: EC50, growth inhibition of 786-O. The method, boiled down: as §1

Experiment [4] deals with A375 (malignant melanoma) cell line. Nature of the experiment: CellTiter-Glo luminescent cell viability assay, A375. As to conditions: Homo sapiens, A-375; for viability at 4 µM: A375, compound at 4 μM; for viability at 4 µM / viability at 10 µM: 72 h; for viability at 10 µM: A375, compound at 10 μM; for EC50: A375 cell line, 72 h incubation, CellTiter-Glo, read-out: EC50, growth inhibition of A375. The method, boiled down:
as §1

Experiment [5] relates to Huh7 (hepatocellular carcinoma) cell line. Briefly: CellTiter-Glo luminescent cell viability assay, Huh7. To be noted: Homo sapiens, Huh-7; for viability at 4 µM: Huh7, compound at 4 μM; for viability at 4 µM / viability at 10 µM: 72 h; for viability at 10 µM: Huh7, compound at 10 μM; for EC50: Huh7 cell line, 72 h incubation, CellTiter-Glo, read-out: EC50, growth inhibition of Huh7. The method, boiled down: as §2

Experiment [6] relates to MOLM-14 (acute myeloid leukemia) cell line. Briefly: CellTiter-Glo luminescent cell viability assay, MOLM-14. As to conditions: Homo sapiens; for viability at 4 µM: MOLM-14, compound at 4 μM; for viability at 4 µM / viability at 10 µM: 72 h; for viability at 10 µM: MOLM-14, compound at 10 μM; for EC50: MOLM-14 cell line, 72 h incubation, CellTiter-Glo, read-out: EC50, growth inhibition of MOLM-14. The essentials: as §2

Turning to `CC(C)N(Cc1ccc(Cl)cc1)c1cc(N2CCC(NC(C)(C)C)CC2)c2ccccc2n1` [Compound 216, 2-(N-4-chlorobenzyl-N-isopropylamino)-4-[4-(tert-butylamino)-piperidin-1-yl]-quinoline hydrochloride], the viability at 4 µM in experiment [1] came to 15.5%; in experiment [2], 30.4%; in experiment [3] it was 78.4%; in experiment [4], 78.1%; in experiment [5], 74.1%; in experiment [6] it was 86.7%. The viability at 10 µM in experiment [1] was 0.3%; in experiment [2], 0.4%; in experiment [3], 0.5%; in experiment [4], 0.4%; in experiment [5], 0.5%; in experiment [6] it was 0.5%.
In the case of `N#Cc1c(NCc2ccc(Cl)cc2)nc2ccccc2c1N1CCC(Oc2ccc(Cl)cc2)C1` (stereo not drawn) [Compound 3336CN, 2-(4-chlorobenzylamino)-3-cyano-4-[3-(4-chlorophenoxy)pyrrolidin1--yl]quinoline], the viability at 4 µM was 99% in experiment [1]; 75.4% in experiment [2]; 82.8% in experiment [3]; 106% in experiment [4]; 95.6% in experiment [5]; 98.8% in experiment [6]. In addition, the viability at 10 µM in experiment [1] turned out to be 92%; in experiment [2] it was 74.5%; in experiment [3], 79.8%; in experiment [4] it was 107%; in experiment [5], 93.8%; in experiment [6], 89.8%.
With `Clc1ccc(CNc2cc(N3CC(N4CCCC4)C3)c3ccccc3n2)cc1` [Compound 116, 2-(4-chlorobenzylamino)-4-[3-(pyrrolidin-1-yl)azetidin-1-yl]quinoline hydrochloride], the concentration giving a half-maximal response (EC50) in experiment [1], in experiment [2], in experiment [3], in experiment [4], in experiment [5] and in experiment [6] was 0.5 to 5 µM in each case.
`N#Cc1c(NCc2ccc(Cl)cc2)nc2ccccc2c1N1CCC(Oc2cccc(F)c2)CC1` [Compound 3228CN, 2-(4-chlorobenzylamino)-3-cyano-4-[4-(3-fluorophenoxy)piperidin-1-yl]quinoline]: the viability at 4 µM is 101% in experiment [1]; 96.7% in experiment [2]; 97.9% in experiment [3]; 98% in experiment [4]; 117% in experiment [5]; 107% in experiment [6]. In addition, the viability at 10 µM worked out at 85.2% in experiment [1]; 86.7% in experiment [2]; 92.9% in experiment [3]; 91.7% in experiment [4]; 108% in experiment [5]; 100% in experiment [6].
For the molecule `CC(C)(C)NC(=O)C1CCN(c2cc(NCc3ccc(Cl)cc3)nc3ccccc23)CC1` [Compound 1604, 2-(4-chlorobenzylamino)-4-[4-(tert-butylaminocarbonyl)-piperidin-1-yl]-quinoline hydrochloride], the EC50 in experiment [1] is 5 to 10 µM; in experiment [2] it was 0.5 to 5 µM; in experiment [3], 5 to 10 µM; in experiment [4], 5 to 10 µM; in experiment [5], 0.5 to 5 µM; in experiment [6] it was 5 to 10 µM.
Turning to `N#Cc1c(NCc2ccc(Cl)cc2)nc2ccccc2c1N1CCC(Oc2ccncc2)C1` (stereo not drawn) [Compound 3344CN, 2-(4-chlorobenzylamino)-3-cyano-4-{3-[(pyridin-4-yl)oxy]pyrrolidin-1-yl}quinoline], the viability at 4 µM in experiment [1] was 91.6%; in experiment [2], 94.1%; in experiment [3], 81.9%; in experiment [4], 83.7%; in experiment [5] it was 50.2%; in experiment [6], 103%. Further, the viability at 10 µM in experiment [1] amounted to 48%; in experiment [2], 62.7%; in experiment [3], 52.6%; in experiment [4], 60.3%; in experiment [5], 40.1%; in experiment [6], 57.8%.
For `CN1CCN(C(=O)C2CCN(c3cc(NCc4ccc(Cl)cc4)nc4ccccc34)CC2)CC1` [Compound 1656, 2-(4-chlorobenzylamino)-4-[4-(4-methylpiperazine-1-carbonyl)-piperidin-1-yl]-quinoline hydrochloride], the EC50 in experiment [1], in experiment [2], in experiment [3], in experiment [4], in experiment [5] and in experiment [6] was 0.5 to 5 µM in each case.
`Clc1ccc(CNc2cc(N3CC[C@@H](Oc4ccccc4)C3)c3ccccc3n2)cc1` [Compound 3012, (3R) 2-(4-chlorobenzylamino)-4-[3-(phenoxy)pyrrolidin-1-yl]quinoline hydrochloride]: the concentration giving a half-maximal response (EC50) in experiment [1], in experiment [2], in experiment [3], in experiment [4], in experiment [5] and in experiment [6] was 0.5 to 5 µM throughout.
Take `Cc1cc2c(C)nc(Nc3ccc(Nc4nc5ccccc5c(N5CCC(NC(C)(C)C)CC5)c4C#N)cc3C)nc2o1` [Compound 512CN, 2-[3-methyl-4-(4,6-dimethylfuro[2,3-d]pyrimidin-2-ylamino)phenylamino]-3-cyano-4-(4-tert-butylaminopiperidin-1-yl)quinoline]: the viability at 4 µM turned out to be 0.2% in experiment [1]; 0.2% in experiment [2]; 0.2% in experiment [3]; 0.3% in experiment [4]; 0.2% in experiment [5]; 0.2% in experiment [6]. The viability at 10 µM in experiment [1] came to 0.2%; in experiment [2], 0.2%; in experiment [3] it was 0.2%; in experiment [4] it was 0.2%; in experiment [5], 0.3%; in experiment [6], 0.3%.
Take `Cc1cc(F)c2nc(NCc3ccc(Cl)cc3)cc(N3CCC(NC(C)(C)C)CC3)c2c1` [Compound 568, 2-(4-chlorobenzylamino)-4-[4-(tert-butylamino)piperidin-1-yl]-6-methyl-8-fluoroquinoline]: the EC50 was in the range of 0.5 to 5 µM in experiment [1]; 0.5 to 5 µM in experiment [2]; 0.5 to 5 µM in experiment [3]; 0.5 to 5 µM in experiment [4]; 5 to 10 µM in experiment [5]; 0.5 to 5 µM in experiment [6].
On to `Cc1c(F)ccc2c(N3CCC(NC(C)(C)C)CC3)cc(NCc3ccc(Cl)cc3)nc12` [Compound 572, 2-(4-chlorobenzylamino)-4-[4-(tert-butylamino)piperidin-1-yl]-7-fluoro-8-methylquinoline], for which the EC50 in experiment [1], in experiment [2], in experiment [3], in experiment [4], in experiment [5] and in experiment [6] was 0.5 to 5 µM throughout.
Turning to `COc1cc(C)nc(Nc2ccc(Nc3nc4ccccc4c(N4CCC(NC(C)(C)C)CC4)c3C#N)cc2C)n1` [Compound 510CN, 2-[4-(4-methyl-6-methoxypyrimidin-2-ylamino)-3-methylphenylamino]-3-cyano-4-(4-tert-butylaminopiperidin-1-yl)quinoline], the viability at 4 µM was 24.8% in experiment [1]; 54.6% in experiment [2]; 2.8% in experiment [3]; 57.4% in experiment [4]; 62.6% in experiment [5]; 74.5% in experiment [6]. Moreover, the viability at 10 µM came out at 0.1% in experiment [1]; 0.1% in experiment [2]; 0.1% in experiment [3]; 0.1% in experiment [4]; 0.3% in experiment [5]; 0.2% in experiment [6].
Take `Cc1c(NCc2ccc(Cl)cc2)nc2ccccc2c1N1CCC(NC(C)(C)C)CC1` [Compound 350, 2-(4-chlorobenzylamino)-3-methyl-4-[4-(tert-butylamino)piperidin-1-yl]quinoline]: the EC50 is 0.5 to 5 µM in experiment [1]; 0.5 to 5 µM in experiment [2]; 0.5 to 5 µM in experiment [3]; 0.5 to 5 µM in experiment [4]; 5 to 10 µM in experiment [5]; 5 to 10 µM in experiment [6].
With `CNC(=O)C1CCN(c2cc(NCc3ccc(Cl)cc3)nc3ccccc23)CC1` [Compound 1598, 2-(4-chlorobenzylamino)-4-[4-(methylcarbamoyl)piperidin-1-yl]quinoline hydrochloride], the EC50 in experiment [1] is 0.5 to 5 µM; in experiment [2], 0.5 to 5 µM; in experiment [3], 5 to 10 µM; in experiment [4] it was 5 to 10 µM; in experiment [5], 0.5 to 5 µM; in experiment [6], 5 to 10 µM.

The viability is a read-out of living cells in per cent, often relative to untreated cells. As usually defined, the EC50 is the concentration giving half of the maximal effect.
